Test results: patent US10517965B2, “Bioorthogonal turn-on probes” (The General Hospital Corporation, priority 2013, dated 2019)

Legend:
[1] = Fluorogenic characterization of HELIOS probes on reaction with TCOc; format: physicochemical; conditions: for peak turn-on ratio upon reaction with TCOc: PBS; for Fluorescence Enhancement: fluorogenic turn-on ratio of the Me-tetrazines upon reaction with TCOc
Protocol: As described above, the fluorescence purity of all HELIOS compounds was verified by LCMS prior to quantitative activation experiments, for which a fresh aliquot of the fluorophore collected from the analytical HPLC elution was used. Exceptionally pure material is required to obtain the peak measured turn-on ratios, as the presence of trace bright contaminants limits the maximum observable ratio.
(§1) Stock solutions of the freshly-purified tetrazine dyes were prepared in MeCN and stored in the dark at 4° C. during experiments. For fluorescence measurements, the probes diluted into 2 mL or 3 mL of phosphate buffered saline (PBS), pH 7.4 (Corning, cellgro) in a standard 10 mm quartz cuvette. Working at peak excitation and emission wavelengths for each probe, data were collected as a continuous time series to enable accurate measurement of the baseline intensity values and optimize signal to noise. Fluorescence experiments were conducted at a range of dye concentrations spanning 100 nM-750 nM, with 500 nM being a typical working concentration. The time to peak turn on ratio (but not the final magnitude) is a function of the added TCOc (see Example 25) concentration; for the time courses presented herein, 10 μM TCOc was used. Measurements of solvent and pre-activation emission intensity for baseline values were collected serially over at least 30 seconds, prior to addition of TCOc to initiate the fluorogenic reaction. After addition of TCOc (typically a 20-fold excess, as above), the fluorescence emission intensity was monitored until a plateau was reached. Activation ratios were calculated from the peak emission intensity of the dihydropyridazine product and the corresponding baseline intensity over background. Data were normalized to set the initial background fluorescence of the HELIOS probe to one unit over background, as plotted in FIG. 9 in the main text.

[2] = Solubility in aqueous media; format: physicochemical; conditions: PBS, micromolar concentrations
[3] = Solvent polarity effects on fluorescence emission of the native probe; format: physicochemical; conditions: PBS pH 7.4, acetonitrile, toluene
Protocol: FIG. 5 provides the absorption and fluorescence emission spectra of 4b in toluene (dielectric constant 2.4) and acetonitrile (dielectric constant 37.5). Samples were prepared by matched dilutions from a concentrated stock solution of 4b. For the fluorescence spectra, the excitation wavelength was offset from peak absorbance in that solvent by 10 nm; in toluene, the excitation wavelength was 496 nm; in acetonitrile,
Fluorescence emission spectra of HELIOS 400Me in PBS (pH 7.4), acetonitrile (dielectric constant 37.5), and toluene (dielectric constant 2.4) was measured (see FIG. 10). Emission spectra are the mean of 2 or 3 scans and the dashed lines represent +/−SEM. Instrument settings were adjusted to optimize sensitivity given the minimal fluorescence of the native HELIOS probe, and samples were prepared by matched dilution of a concentrated stock solution of HELIOS 400Me into the respective solvents. […] J. Meskers, E. H. A. Beckers, S. Chopin, R. A. J. Janssen, J. Phys. Chem. A 2006, 110, 12363].

[4] = tested on: mitochondria of OVCA-429 cells; assay: Mitochondria imaging of OVCA-429 cells after anti-COX IV-TCO; format: cell-based
From the text: (§2) Microscope: Multichannel images were collected on an Olympus Fluoview FV1000 confocal laser microscope. Coumarin probes were excited with a 405 nm laser, with alternate excitation sources used as relevant for reference channels, paired with appropriate emission filter sets. Cell culture: A-431 cells (ATCC CRL-1555) and COS-1 cells (ATCC CRL-1650) were cultivated in Dulbecco's Modified Eagle's Medium (DMEM), supplemented with 10% fetal bovine serum and grown in standard culture conditions in 10 cm dishes. OVCA-429 cells were cultivated in RPMI-1640 supplemented with 10% fetal bovine serum under standard culture conditions. For imaging experiments cells were plated on Millicell EZ slides (EMD Millipore, Inc, Billerica, Mass.). Antibody reagents: Monoclonal antibody-TCO conjugates were prepared by incubation of commercially available monoclonal antibodies TCO-PEG4-NHS (Click Chemistry Tools, Scottsdale, Ariz.). Anti EGFR (Cetuximab, Imclone). Anti cytochrome c oxidase (COXIV, Cell signaling Technology, #4844, Danvers, Mass.). An aliquot of antibody in the manufacturer-supplied storage solution was buffer exchanged into PBS with 10 mM sodium bicarbonate, pH 8.0, on a 40K ZebaSpin desalting column (0.5 mL, Thermo Fisher Scientific, Rockford, Ill.). To this solution was added 20 equivalents of TCO-PEG4-NHS; the mixture was allowed to react at 25° C. for 30 minutes, with continuous shaking. The reaction mix was loaded onto a 40K ZebaSpin column to remove organic solvent and small molecule fractions; this eluate was loaded onto a second 40K ZebaSpin column to ensure comprehensive removal of any excess TCO. EGFR Imaging: Fixed A431 cells were prepared by treatment with 4% paraformaldehyde solution (10 min, room temperature), followed by 3 washes with PBS. Fixed cells were stored at 4° C. until the time of imaging, when they were incubated for 20 minutes with 20 μg/mL cetuximab-TCO, then rinsed three times with PBS. […] The concentration of stock solutions in PBS were calculated by absorbance spectrometry, based on the measured extinction coefficient of 19000 M^−1 cm^−1. […]

[5] = Peak excitation/emission wavelengths and extinction coefficient in PBS; format: physicochemical; conditions: for Peak Em Wavelength: emission; for Peak Ex Wavelength: excitation; for ε: at peak excitation wavelength in PBS, pH 7.4, in M-1cm-1 (unit assumed)
Protocol: as §1
Microscope: Multichannel images were collected on an Olympus Fluoview FV1000 confocal laser microscope. Coumarin probes were excited with a 405 nm laser, with alternate excitation sources used as relevant for reference channels, paired with appropriate emission filter sets. Cell culture: A-431 cells (ATCC CRL-1555) and COS-1 cells (ATCC CRL-1650) were cultivated in Dulbecco's Modified Eagle's Medium (DMEM), supplemented with 10% fetal bovine serum and grown in standard culture conditions in 10 cm dishes. OVCA-429 cells were cultivated in RPMI-1640 supplemented with 10% fetal bovine serum under standard culture conditions. For imaging experiments cells were plated on Millicell EZ slides (EMD Millipore, Inc, Billerica, Mass.). Antibody reagents: Monoclonal antibody-TCO conjugates were prepared by incubation of commercially available monoclonal antibodies TCO-PEG4-NHS (Click Chemistry Tools, Scottsdale, Ariz.). Anti EGFR (Cetuximab, Imclone). Anti cytochrome c oxidase (COXIV, Cell signaling Technology, #4844, Danvers, Mass.). An aliquot of antibody in the manufacturer-supplied storage solution was buffer exchanged into PBS with 10 mM sodium bicarbonate, pH 8.0, on a 40K ZebaSpin desalting column (0.5 mL, Thermo Fisher Scientific, Rockford, Ill.). To this solution was added 20 equivalents of TCO-PEG4-NHS; the mixture was allowed to react at 25° C. for 30 minutes, with continuous shaking. The reaction mix was loaded onto a 40K ZebaSpin column to remove organic solvent and small molecule fractions; this eluate was loaded onto a second 40K ZebaSpin column to ensure comprehensive removal of any excess TCO. EGFR Imaging: Fixed A431 cells were prepared by treatment with 4% paraformaldehyde solution (10 min, room temperature), followed by 3 washes with PBS. Fixed cells were stored at 4° C. until the time of imaging, when they were incubated for 20 minutes with 20 μg/mL cetuximab-TCO, then rinsed three times with PBS. For optimal image quality, HELIOS 370H probe must be purified on the day of imaging by reversed phase HPLC-MS. The concentration of stock solutions in PBS were calculated by absorbance spectrometry, based on the measured extinction coefficient of 19000 M^−1 cm^−1. Prior to imaging, the purified stock solutions were subjected to turn-on testing, verifying a fluorogenic turn-on ratio of >1000-fold for HELIOS 370H. For imaging experiments, the acetonitrile stocks were diluted into PBS to yield a 100 nM solution. […]

[6] = tested on: epidermal growth factor receptor (EGFR) on A431 cells; assay: No-wash fluorogenic imaging of EGFR on A431 cells after cetuximab-TCO; format: cell-based, human
From the text: as §2

[7] = Quantum yield determination, quinine sulfate reference; format: physicochemical; conditions: dihydropyridazine product after complete reaction with TCOc in PBS pH 7.4; quinine sulfate standard (Φ = 0.546)
From the text: Quantum yield determinations: quinine sulfate dihydrate (Fluorescence Reference Standard grade, AnaSpec, Inc) in 0.5 M H2SO4 was used as a reference, with an excitation wavelength of 370 nm; a value of 0.546 was used for the reference quantum yield (Eaton, D. F., Pure and Applied Chemistry, 1988 60(7), 1107-1114). Calculations were made according to the methods described by Crosby and Demas (Chemical Reviews, 1971, 75(8), 991-1024).

| Peak Em Wavelength [5] | Peak Ex Wavelength [5] | Φ w/TCOc [7] | ε [5] | Structure (SMILES) | peak turn-on ratio upon reaction with TCOc [1] | Fluorescence Enhancement [1] | other results |
| --- | --- | --- | --- | --- | --- | --- | --- |
| 463 nm | 370 nm | 0.49 | 19,000 | Cc1nnc(-c2cccc(-c3c(C)c4cc(F)c(O)c(F)c4oc3=O)c2)nn1 [HELIOS 370Me] | 2,900 fold | 2,900-fold |  |
| 482 nm | 388 nm | 0.38 | 20,000 | Cc1nnc(-c2cccc(-c3c(C)c4cc5c(cc4oc3=O)NCCC5)c2)nn1 [HELIOS 388Me] | 11,000 fold | 11,000-fold |  |

The remaining lines, values behind:

| Structure (SMILES) | Peak Em Wavelength [5] | Peak Ex Wavelength [5] | Φ w/TCOc [7] | ε [5] | peak turn-on ratio upon reaction with TCOc [1] | Fluorescence Enhancement [1] | other results |
| --- | --- | --- | --- | --- | --- | --- | --- |
| Cc1nnc(-c2ccc(-c3c(C)c4cc5c6c(c4oc3=O)CCCN6CCC5)cc2)nn1 [HELIOS 400pMe] |  |  |  |  | 1,000 fold |  | Solubility in phosphate buffered saline [2]: soluble |
| Cc1nnc(-c2cccc(-c3c(C)c4cc5c6c(c4oc3=O)CCCN6CCC5)c2)nn1 [HELIOS 400Me] |  |  |  |  | 4,000 fold |  | Solubility in phosphate buffered saline [2]: soluble; dependence of fluorescence emission intensity on solvent polarity [3]: largely independent of solvent polarity |
| Cc1c(-c2cccc(-c3nncnn3)c2)c(=O)oc2cc3c(cc12)CCCN3 [HELIOS 388H] |  |  |  |  |  |  | time until mitochondrial labeling evident ([4]; 100 nM, fixed and permeabilized OVCA-429 cells): ≤ 2 min; colocalization with mitochondria-specific RFP ([4]; OVCA-429 cells expressing RFP): good colocalization; target to background ratio over time ([4]; serial images up to an hour from dye addition): stable target to background ratios |
| Cc1c(-c2cccc(-c3nncnn3)c2)c(=O)oc2c(F)c(O)c(F)cc12 [HELIOS 370H] |  |  |  |  |  |  | fluorogenic turn-on ratio of purified stock prior to imaging ([1]; turn-on testing of freshly purified stock solutions): > 1000 fold; measured extinction coefficient ([5]; stock solutions in PBS): 19000 M⁻¹ cm⁻¹; staining pattern ([6]; 100 nM in PBS, no wash): bright, membrane specific staining; time until specific staining evident ([6]; 100 nM probe in PBS, fixed A431 cells, cetuximab-TCO): ≤ 10 s; nonspecific binding ([6]; after extended incubation): no nonspecific binding |
| Cc1c(CC(=O)NCc2ccc(-c3nncnn3)cc2)c(=O)oc2c(F)c(O)c(F)cc12 [Marina Blue-Tz, reference compound] | 459 nm | 362 nm |  |  | 60 fold | 60-fold |  |
| Cc1nnc(-c2cccc(-c3c(C)c4ccc(N)cc4oc3=O)c2)nn1 [HELIOS 347Me] | 455 nm | 347 nm | 0.29 | 18,500 | 2,500 fold | 2,500-fold |  |
